# Test system: 616215-338-R-J1-PDC complex spheroid viability
# Test: Anticancer human tumor 616215-338-R-J1-PDC patient-derived colon adenocarcinoma cell line growth inhibition [POLQ]
# Conditions: for IC50: curve of first compound; for viability, T/C: stronger effect = lower value
# Procedure: Multicellular complex tumor spheroid response to Polymerase (POL) inhibitors (novobiocin, ART-558, RP6685) in combination with a variety of drugs and investigational agents in selected tumor cell lines
# The POL inhibitors (novobiocin, ART-558, and RP6685) were evaluated both individually and in combination with standard of care and investigational anticancer small molecules within a complex spheroid model of solid tumors. . Complex spheroids include a stromal component modeled by human endothelial cells (HUVEC) and fibroblasts modeled by human mesenchymal stem cells (MSCs). The concentration ranges selected for each drug and investigational agent were based upon clinically achievable concentrations if the clinical Cmax of the agent was known.
# Compounds. The drugs and investigational agents: novobiocin (NSC847541), ART-558 (NSC835418), RP-6685 (NSC848927), peposertib (NSC802822), ceralasertib (NSC780249), elimusertib (NSC800525), camonsertib (NSC841442), AZD-1390 (NSC803789), olaparib (NSC753686), talazoparib (NSC767125), rucaparib (NSC756644), sotorasib (NSC818433), MRTX-1133 (NSC836407), SN-38 (NSC673596), topotecan (NSC609699), epotoside (NSC141540), doxorubicin (NSC123127), gemcitabine (NSC613327), 5-fluorouracil (NSC19893), paclitaxel (NSC125973), vemurafenib (NSC761431), MSA-2 (NSC828583), SN-011 (NSC837082), adavosertib (NSC754352), prexasertib (NSC758257), carboplatin (NSC241240) and oxaliplatin (NSC266046), were obtained from the National Cancer Institute (NCI) Developmental Therapeutics Program Chemical Repository (21). The FDA-approved anticancer drug set is available from the Developmental Therapeutics Program at https://dtp.cancer.gov/organization/dscb/obtaining/. […] The stock solutions were prepared in dimethyl sulfoxide (DMSO, Sigma-Aldrich, St. Louis, MO, cat. D2650), except for the platinum compounds which were prepared in saline (Quality Biological, Gaithersburg, MD, cat. 114-055-101), at 800-fold the tested concentration and stored at -70 degrees C prior to their use. All drugs and investigational agents were tested over a range starting from a high concentration at or near the clinical Cmax and decreasing in half-log increments. If the clinical Cmax for an agent had not been determined, the highest concentration tested was 10 microM, except for SN-38, which was tested at a high concentration of 1 microM.
# Cell Culture. All cells were maintained in an incubator at 37 degrees C and 5% CO2 with 95% humidity. The PDC lines were cultured according to standard operating procedures established by the NCI PDMR (https://pdmr.cancer.gov). Table 3 of the manuscript, lists the cell lines along with the number of the three cell types plated to form the mct-spheroids and media for tumor cell growth. After thawing, all PDC lines, except 997537-175-T-J1-PDC and 415267-285-R-J2-PDC, were cultured in Matrigel-coated flasks prepared with a working solution of 1X Ham's F-12 nutrient mix, without supplementation (Thermo Fisher Scientific, cat. 11765054), 100 U/mL penicillin-streptomycin (Thermo Fisher Scientific, cat. 15140122), and 2.5% Matrigel (Corning Inc., Corning, NY, cat. 354248) for the first three passages. The two PDC lines 997537-175-T-J1-PDC and 415267-285-R-J2-PDC were cultured on uncoated flasks. The 857933-349-R-J2-PDC line was cultured in 6C/Colon 1B media containing advanced DMEM/F-12 (Thermo Fisher Scientific, cat. 12634028), 10 mM HEPES (Thermo Fisher Scientific, cat. 15630080), 1X GlutaMAX supplement (Thermo Fisher Scientific, cat. 35050061), 0.1 mg/mL primocin (InvivoGen, San Diego, CA, cat. ant-pm-2), 10% defined fetal bovine serum, heat inactivated (HyClone Laboratories Inc., Logan, UT, cat. SH30070.03HI), 50% L-WRN conditioned media (ATCC, cat. CRL-3276), 1.25 mM N-Acetyl-L-cysteine (Sigma-Aldrich, cat. A9165), 10 mM nicotinamide (Sigma-Aldrich, cat. N0636), 1X B-27 supplement (Thermo Fisher Scientific, cat. 17504044), 1X N-2 supplement (Thermo Fisher Scientific, cat. […]
# 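Note: spheroids exposed to compounds for one week before readout.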
# 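Throughout, for viability, T/C: percent viability relative to DMSO vehicle wells taken as 100%.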
structure (smiles),measurement,setting,value
CC(=O)O[C@H]1C(=O)[C@@]2(C)[C@H]([C@H](OC(=O)c3ccccc3)[C@]3(O)C[C@H](OC(=O)[C@H](O)[C@@H](NC(=O)c4ccccc4)c4ccccc4)C(C)=C1C3(C)C)[C@]1(OC(C)=O)CO[C@@H]1C[C@@H]2O + COC1C(OC(N)=O)C(O)C(Oc2ccc3c(O)c(NC(=O)c4ccc(O)c(CC=C(C)C)c4)c(=O)oc3c2C)OC1(C)C,IC50,second compound 0.0316 µM,41.8 nM
same,IC50,second compound 0.1 µM,45.4 nM
same,IC50,second compound 0.316 µM,25.2 nM
same,IC50,second compound 1 µM,26.9 nM
same,IC50,second compound 3.16 µM,29.3 nM
same,IC50,second compound 10 µM,29.8 nM
same,"viability, T/C","second compound 0.0316 µM, first compound 0.00949 µM",76.1%
same,"viability, T/C","second compound 0.0316 µM, first compound 0.03 µM",52.6%
same,"viability, T/C","second compound 0.0316 µM, first compound 0.0949 µM",41%
same,"viability, T/C","second compound 0.0316 µM, first compound 0.3 µM",38.6%
same,"viability, T/C","second compound 0.0316 µM, first compound 0.949 µM",34.3%
same,"viability, T/C","second compound 0.0316 µM, first compound 3 µM",30.5%
same,"viability, T/C","second compound 0.1 µM, first compound 0.00949 µM",89.7%
same,"viability, T/C","second compound 0.1 µM, first compound 0.03 µM",54%
same,"viability, T/C","second compound 0.1 µM, first compound 0.0949 µM",42.5%
same,"viability, T/C","second compound 0.1 µM, first compound 0.3 µM",35.3%
same,"viability, T/C","second compound 0.1 µM, first compound 0.949 µM",37.1%
same,"viability, T/C","second compound 0.1 µM, first compound 3 µM",32.6%
same,"viability, T/C","second compound 0.316 µM, first compound 0.00949 µM",97.3%
same,"viability, T/C","second compound 0.316 µM, first compound 0.03 µM",41.5%
same,"viability, T/C","second compound 0.316 µM, first compound 0.0949 µM",40.4%
same,"viability, T/C","second compound 0.316 µM, first compound 0.3 µM",38.3%
same,"viability, T/C","second compound 0.316 µM, first compound 0.949 µM",38.5%
same,"viability, T/C","second compound 0.316 µM, first compound 3 µM",31.8%
same,"viability, T/C","second compound 1 µM, first compound 0.00949 µM",96.5%
same,"viability, T/C","second compound 1 µM, first compound 0.03 µM",44.1%
same,"viability, T/C","second compound 1 µM, first compound 0.0949 µM",37.1%
same,"viability, T/C","second compound 1 µM, first compound 0.3 µM",33.4%
same,"viability, T/C","second compound 1 µM, first compound 0.949 µM",31.4%
same,"viability, T/C","second compound 1 µM, first compound 3 µM",31.7%
same,"viability, T/C","second compound 3.16 µM, first compound 0.00949 µM",84.2%
same,"viability, T/C","second compound 3.16 µM, first compound 0.03 µM",48.2%
same,"viability, T/C","second compound 3.16 µM, first compound 0.0949 µM",40.8%
same,"viability, T/C","second compound 3.16 µM, first compound 0.3 µM",31.4%
same,"viability, T/C","second compound 3.16 µM, first compound 0.949 µM",36.1%
same,"viability, T/C","second compound 3.16 µM, first compound 3 µM",32.2%
same,"viability, T/C","second compound 10 µM, first compound 0.00949 µM",87.6%
same,"viability, T/C","second compound 10 µM, first compound 0.03 µM",48.3%
same,"viability, T/C","second compound 10 µM, first compound 0.0949 µM",42.2%
same,"viability, T/C","second compound 10 µM, first compound 0.3 µM",34.2%
same,"viability, T/C","second compound 10 µM, first compound 0.949 µM",32.7%
same,"viability, T/C","second compound 10 µM, first compound 3 µM",36.5%
COc1cc(C2c3cc4c(cc3C(OC3OC5COC(C)OC5C(O)C3O)C3COC(=O)C23)OCO4)cc(OC)c1O (centres undefined) + COC1C(OC(N)=O)C(O)C(Oc2ccc3c(O)c(NC(=O)c4ccc(O)c(CC=C(C)C)c4)c(=O)oc3c2C)OC1(C)C,IC50,second compound 0.0316 µM,> 10000 nM
same,IC50,second compound 0.1 µM,> 10000 nM
same,IC50,second compound 0.316 µM,> 10000 nM
same,IC50,second compound 1 µM,8650 nM
same,IC50,second compound 3.16 µM,> 10000 nM
same,IC50,second compound 10 µM,> 10000 nM
same,"viability, T/C","second compound 0.0316 µM, first compound 0.0316 µM",100%
same,"viability, T/C","second compound 0.0316 µM, first compound 0.1 µM",102%
same,"viability, T/C","second compound 0.0316 µM, first compound 0.316 µM",95.3%
same,"viability, T/C","second compound 0.0316 µM, first compound 1 µM",83%
same,"viability, T/C","second compound 0.0316 µM, first compound 3.16 µM",88.3%
same,"viability, T/C","second compound 0.0316 µM, first compound 10 µM",54.2%
same,"viability, T/C","second compound 0.1 µM, first compound 0.0316 µM",117%
same,"viability, T/C","second compound 0.1 µM, first compound 0.1 µM",117%
same,"viability, T/C","second compound 0.1 µM, first compound 0.316 µM",95.6%
same,"viability, T/C","second compound 0.1 µM, first compound 1 µM",81.8%
same,"viability, T/C","second compound 0.1 µM, first compound 3.16 µM",77.1%
same,"viability, T/C","second compound 0.1 µM, first compound 10 µM",59.8%
same,"viability, T/C","second compound 0.316 µM, first compound 0.0316 µM",108%
same,"viability, T/C","second compound 0.316 µM, first compound 0.1 µM",106%
same,"viability, T/C","second compound 0.316 µM, first compound 0.316 µM",93.4%
same,"viability, T/C","second compound 0.316 µM, first compound 1 µM",85.8%
same,"viability, T/C","second compound 0.316 µM, first compound 3.16 µM",81%
same,"viability, T/C","second compound 0.316 µM, first compound 10 µM",55%
same,"viability, T/C","second compound 1 µM, first compound 0.0316 µM",104%
same,"viability, T/C","second compound 1 µM, first compound 0.1 µM",113%
same,"viability, T/C","second compound 1 µM, first compound 0.316 µM",92.5%
same,"viability, T/C","second compound 1 µM, first compound 1 µM",86.1%
same,"viability, T/C","second compound 1 µM, first compound 3.16 µM",74.5%
same,"viability, T/C","second compound 1 µM, first compound 10 µM",45.8%
same,"viability, T/C","second compound 3.16 µM, first compound 0.0316 µM",111%
same,"viability, T/C","second compound 3.16 µM, first compound 0.1 µM",111%
same,"viability, T/C","second compound 3.16 µM, first compound 0.316 µM",100%
same,"viability, T/C","second compound 3.16 µM, first compound 1 µM",79%
same,"viability, T/C","second compound 3.16 µM, first compound 3.16 µM",68.1%
same,"viability, T/C","second compound 3.16 µM, first compound 10 µM",59.3%
same,"viability, T/C","second compound 10 µM, first compound 0.0316 µM",106%
same,"viability, T/C","second compound 10 µM, first compound 0.1 µM",108%
same,"viability, T/C","second compound 10 µM, first compound 0.316 µM",84.5%
same,"viability, T/C","second compound 10 µM, first compound 1 µM",82.5%
same,"viability, T/C","second compound 10 µM, first compound 3.16 µM",74.1%
same,"viability, T/C","second compound 10 µM, first compound 10 µM",56.5%

# Reference: PubChem BioAssay AID1963843 (Molecular Pharmacology Branch, DTP, NCI, 2024)
